Experimental data from paper PMC8472287, “Betulinic Acid Decorated with Polar Groups and Blue Emitting BODIPY Dye: Synthesis, Cytotoxicity, Cell-Cycle Analysis and Anti-HIV Profiling” (Biomedicines, 2021).
Like-named read-outs stand apart in the source and are kept apart here.

Assays:
U2OS-Nuc cell line = test: Live cell imaging, pilot experiment; assay type: cell-based, human; conditions: 10 µM, 1 h incubation
Description: U2OS cell line (ATCC, USA) was transduced with premade lentiviral particles (Vectalis-TaKaRa, Japan) with sequences that express fluorescent protein tag mCherry targeted to specific subcellular locations. All cell lines were prepared according to the vendor’s instructions. The U2OS-Nuc cell line was prepared by using rLV.EF1.mCherry-Nuc-9 (cat. n. 0023VCT), containing a NLS sequence that imports protein into the nucleus. The U2OS-ER cell line was transduced by rLV.EF1.mCherry-ER-9 (cat. n. 0025VCT), which contains a calreticulin signal sequence and a KDEL sequence that associates protein with the endoplasmic reticulum. The U2OS-GA cell line was transduced by rLV.EF1.mCherry-Golgi-9 (cat. n. 0022VCT), containing a human GT precursor, a protein localized in Golgi Apparatus. The U2OS-Mito cell line was prepared by using rLV.EF1.mCherry-Mito-9 (cat. n. 0024VCT), containing a mitochondrial targeting sequence.
U2OS cells with fluorescent fusion proteins (density 1.0 × 10^3 per well) were seeded into 384 CellCarrier plates (Perkin Elmer, Waltham, MA, USA) and pre-incubated for 24 h at 37 °C and 5% CO2. The attached cells were treated with tested compounds in concentration 10 µM for 1 h and subsequently rinsed with fresh media. The live-cell imaging was performed by Cell Voyager CV7000 (Yokogawa, Tokyo, Japan) spinning disc confocal microscopy system at 37 °C in a 5% CO2 atmosphere. Live cells were monitored by a 60 × water immersion objective. The fluorescent signal was excited by lasers (405 nm and 561 nm) and the emission was filtered by bandpass filters (BP 445/45 and BP 595/20). All images were post-processed, and Pearson’s and Mander’s coefficients were calculated using the JACoP plugin in Image-J software.

U2OS = test: MTS cytotoxicity assay, U2OS; assay type: cell-based; conditions: Homo sapiens, 72 h, 3-day incubation
Source text: (§1) All cells (if not indicated otherwise) were purchased from the American Tissue Culture Collection (ATCC; Manassas, VA, USA). The highly chemosensitive CCRF-CEM line is derived from T lymphoblastic leukaemia, K562 represent cells of chronic myelogenous leukaemia. Colorectal adenocarcinoma HCT116 cell line and its p53 gene knockout counterpart (HCT116p53−/−, Horizon Discovery Ltd., Cambridge, UK) were used as models to assess the impact of p53 deficiency on cell line sensitivity. A549 cells are derived from lung adenocarcinoma and U2OS from human osteosarcoma. CEM-DNR and K562-Tax are well-characterized daunorubicin and paclitaxel-resistant sublines of CCRF-CEM and K562. The CEM-DNR resistant cells overexpress the P-glycoprotein and LRP protein, the K562-Tax overexpress P-glycoprotein but is losing the expression of LRP, which is present at parental K562 cell line. P-glycoprotein belongs to the ABC transporters’ family and is involved in the primary and acquired multidrug resistance phenomenon by the efflux of toxic compounds, LRP protein is involved in the lysosomal degradation. MRC-5 and BJ cell lines were used as a non-tumour control and represent human fibroblasts. The cells were maintained in Nunc/Corning 80 cm^2 plastic tissue culture flasks and cultured in cell culture medium according to ATCC or Horizon recommendations (DMEM/RPMI 1640 with 5 g/L-glucose, 2 mM glutamine, 100 U/mL penicillin, […] streptomycin, 10% fetal calf serum, and NaHCO3).
(§2) To perform the cytotoxicity MTS assay, cell suspensions were prepared and diluted according to the cell type and the expected target cell density (25,000–35,000 cells/mL) based on cell growth characteristics. Cells were added by an automatic pipettor (30 μL) into 384 well microtiter plates. All tested compounds were dissolved in 100% DMSO and four-fold dilutions of the intended test concentration were added in 0.15 μL aliquots at time zero to the microtiter plate wells by the echo-acoustic liquid handler Echo550 (Labcyte, San Jose, CA, USA). The experiments were performed in technical duplicates and at least three biological replicates. The cells were incubated with the tested compounds for 72 h at 37 °C, in a 5% CO2 atmosphere at 99% humidity. At the end of the incubation period, the cells were assayed by using the MTS test. Aliquots (5 µL) of the MTS stock solution were pipetted into each well and incubated for an additional 1–4 h. After this incubation period, the optical density (OD) was measured at 490 nm with an Envision microplate reader (Perkin Elmer, Waltham, Massachusetts, USA). Tumour cell survival (TCS) was calculated using the following equation: TCS = (ODdrug-exposed well/mean ODcontrol wells) × 100%.

BJ = test: MTS cytotoxicity assay, BJ; assay type: cell-based; conditions: Homo sapiens, 72 h, BJ normal fibroblasts, 3-day incubation
Source text: as §1, §2

A549 = test: MTS cytotoxicity assay, A549; assay type: cell-based; conditions: Homo sapiens, 72 h, 3-day incubation
Source text: as §1, §2

K562-Tax = test: MTS cytotoxicity assay, K562-Tax; assay type: cell-based; conditions: Homo sapiens, 72 h, K562-Tax (paclitaxel-resistant), 3-day incubation
Source text: as §1, §2

[1] = system: CA-SP1 processing of HIV-1 Gag polyprotein; test: Western blot of released virions with anti-HIV-1 CA antibody; assay type: cell-based
CCRF-CEM lymphoblasts [2] = test: BrU incorporation analysis (RNA synthesis); assay type: cell-based, human; conditions: 24 h, 5 × IC50 (high concentration)
HCT116p53−/− = test: MTS cytotoxicity assay, HCT116p53−/−; assay type: cell-based; conditions: Homo sapiens, HCT116-p53-null, 72 h, HCT116p53−/− (null p53 gene), 3-day incubation
Source text: as §1, §2

MRC-5 = test: MTS cytotoxicity assay, MRC-5; assay type: cell-based; conditions: Homo sapiens, MRC5, 72 h, MRC-5 normal fibroblasts, 3-day incubation
Source text: as §1, §2

CCRF-CEM lymphoblasts [3] = test: BrDU incorporation analysis (DNA synthesis); assay type: cell-based, human; conditions: 24 h incubation
Description: Cells were cultivated as in the method above and pulse-labelled with 10 μM 5-bromo-2-deoxyuridine (BrDU) for 30 min before collection to the test tubes. The cells were washed with cold 1 × PBS and fixed in ice-cold 70% ethanol. Before analysis, they were washed with 1 × PBS and incubated in 2M HCl for 30 min at room temperature. Following neutralization with 0.1M Na2B4O7 (borax), the cells were washed with 0.5% Tween-20 and 1% BSA in 1 × PBS. The cell pellets were stained using a primary anti-BrdU antibody (Exbio, Vestec, Czech Republic) for 30 min at room temperature and a secondary anti-mouse-FITC antibody (Sigma). The samples were then incubated with propidium iodide (0.1 mg mL^−1), treated with RNase A (0.5 mg mL^−1) for 1 h at room temperature in the dark and analysed as above.

CEM-DNR = test: MTS cytotoxicity assay, CEM-DNR; assay type: cell-based; conditions: Homo sapiens, 72 h, CEM-DNR (daunorubicin resistant), 3-day incubation
Source text: as §1, §2

K562 = test: MTS cytotoxicity assay, K562; assay type: cell-based; conditions: Homo sapiens, 72 h, 3-day incubation
Source text: as §1, §2

HCT116 = test: MTS cytotoxicity assay, HCT116; assay type: cell-based; conditions: Homo sapiens, HCT-116, 72 h, 3-day incubation
Source text: as §1, §2

CCRF-CEM = test: MTS cytotoxicity assay, CCRF-CEM; assay type: cell-based; conditions: Homo sapiens, 72 h, 3-day incubation
Source text: as §1, §2

in vitro = conditions: human
[4] = system: VSV-G pseudotyped HIV-1 particles; test: microbe, parasite or virus in culture; assay type: cell-based; conditions: read-out: IC50i (50% infection inhibition)
[5] = Human immunodeficiency virus 1, HEK293, 48 h

| SMILES | detection in living cells (U2OS-Nuc cell line) | IC50 (U2OS) [µM] | IC50 (BJ) [µM] | IC50 (A549) [µM] | IC50 (K562-Tax) [µM] | cytotoxic effect in the cell line panel (in words) (entire cell line panel) | CA forms identified in released viruses (CA-SP1 processing) [1] | RNA synthesis by BrU (in words) (CCRF-CEM lymphoblasts [2]) | IC50 (HCT116p53−/−) [µM] | IC50 (MRC-5) [µM] | fraction of proliferating BrDU positive CCRF-CEM cells (in words) (CCRF-CEM lymphoblasts [3]) | IC50 (CEM-DNR) [µM] | IC50 (K562) [µM] | IC50 (HCT116) [µM] | IC50 (CCRF-CEM) [µM] | IC50 (in vitro) [µM] | IC50 [4, 5] [µM] | IC50 [4] [µM] |
| --- | --- | --- | --- | --- | --- | --- | --- | --- | --- | --- | --- | --- | --- | --- | --- | --- | --- | --- |
| NCCCNC1=C2C=CC=[N+]2[B-](F)(F)n2cccc21 [BODIPY-NH2, 8-N-(3-Aminopropyl)amino-4,4-difluoro-4-bora-3a,4a-diaza-s-indacene] | not detected | – | – | – | – | – | – | – | – | – | – | – | – | – | – | – | – | – |
| C=C(C)[C@@H]1CC[C@]2(C(=O)NCCCNC3=C4C=CC=[N+]4[B-](F)(F)n4cccc43)CC[C@]3(C)[C@H](CC[C@@H]4[C@@]5(C)CC[C@H](OC(=O)CC(C)(C)C(=O)O)C(C)(C)[C@@H]5CC[C@]43C)[C@@H]12 [Compound 10, 4-{[(3β)-28-{[N-(4,4-Difluoro-4-bora-3a,4a-diaza-s-indacene-8-yl)-3-aminopropyl]amino}-28-oxolup-20(29)-ene-3-yl]oxy}-2,2-dimethyl-4-oxobutanoic acid] | – | 12.4 | 15.5 | 13.6 | 12.2 | medium cytotoxicity | not only fully processed p24 CA, but also p25 CA-SP1 protein | stalled RNA synthesis | 8.8 | 14.1 | reduced the fraction of proliferating BrDU positive CCRF-CEM cells | 7 | 23.2 | 7.92 | 2.92 | > 40 | < 10 | 8.4 |
| O=C(O)CCNC1=C2C=CC=[N+]2[B-](F)(F)n2cccc21 [BODIPY-CO2H, 8-N-(β-Alanyl)amino-4,4-difluoro-4-bora-3a,4a-diaza-s-indacene] | not detected | – | – | – | – | – | – | – | – | – | – | – | – | – | – | – | – | – |
| C=C(C)[C@@H]1CC[C@]2(C(=O)NCCCNC(=O)OC(C)(C)C)CC[C@]3(C)[C@H](CC[C@@H]4[C@@]5(C)CC[C@H](OC(=O)CC(C)(C)C(=O)O)C(C)(C)[C@@H]5CC[C@]43C)[C@@H]12 [Compound 8, 4-{[(3β)-28-({3-[(Tert-butoxycarbonyl)amino]propyl}amino)-28-oxolup-20(29)-ene-3--yl]oxy}-2,2-dimethyl-4-oxobutanoic acid] | – | 17.2 | 21.5 | 18.8 | 13.3 | medium cytotoxicity | not only fully processed p24 CA, but also p25 CA-SP1 protein | stalled RNA synthesis | 21.6 | 23.1 | reduced the fraction of proliferating BrDU positive CCRF-CEM cells | 9.24 | 19.2 | 13.2 | 8.18 | 37.8 | – | – |
| C=C(C)[C@@H]1CC[C@]2(C(=O)N3CCN(CCNC4=C5C=CC=[N+]5[B-](F)(F)n5cccc54)CC3)CC[C@]3(C)[C@H](CC[C@@H]4[C@@]5(C)CC[C@H](OC(=O)CC(C)(C)C(=O)O)C(C)(C)[C@@H]5CC[C@]43C)[C@@H]12 [Compound 18, 4-{[(3β)-28-{4-[N-(4,4-Difluoro-4-bora-3a,4a-diaza-s-indacene-8-yl)-2-aminoethyl]piperazine-1-yl}-28-oxolup-20(29)-ene-3-yl]oxy}-2,2-dimethyl-4-oxobutanoic acid] | – | > 50 | > 50 | 47.8 | > 50 | inactive | not only fully processed p24 CA, but also p25 CA-SP1 protein | increased the percentage of BrU positive cells | 45.5 | > 50 | increased the percentage of cells incorporating BrDU | > 50 | > 50 | 30.8 | 8.61 | > 40 | < 10 | 7.1 |
